Laboratory results reported in ChEMBL document CHEMBL5380793, “Structure-Activity Relationship of Novel Pyrimidine Derivatives with Potent Inhibitory Activities against Mycobacterium tuberculosis” (J Med Chem, 2023).
Converted amounts (≈) assume the structure as drawn.

Key:
[1] = test system: Mycobacterium tuberculosis; assay: Antitubercular activity against marker free autoluminescent Mycobacterium tuberculosis H37Ra assessed as reduction in relative light unit measured once a day for 6 days; type: functional; settings: 144 h, time 6 day
[2] = Cytotoxicity against human HepG2 cells assessed as inhibition of cell growth incubated for 48 hrs by MTT assay; type: toxicity, cell-based
Staphylococcus aureus = assay: Antibacterial activity against methicillin-resistant Staphylococcus aureus assessed as inhibition of bacterial growth; type: functional
[3] = test system: Mycobacteroides abscessus; assay: Antibacterial activity against Mycobacterium abscessus assessed as inhibition of bacterial growth; type: functional
[4] = test system: Mycolicibacterium smegmatis; assay: Antibacterial activity against Mycobacterium smegmatis assessed as inhibition of bacterial growth; type: functional
Escherichia coli = assay: Antibacterial activity against Escherichia coli assessed as inhibition of bacterial growth; type: functional
[5] = test system: Mycobacterium tuberculosis; assay: Antibacterial activity against Mycobacterium tuberculosis H37Rv assessed as inhibition of bacterial growth incubated for 6 days by microplate alamar blue assay; type: functional; settings: 144 h, time 6 day
[6] = test system: Mycobacterium tuberculosis; assay: Antibacterial activity against Mycobacterium tuberculosis clinical isolate K4 assessed as inhibition of bacterial growth incubated for 6 days by microplate alamar blue assay; type: functional; settings: K4, 144 h, time 6 day
[7] = test system: Mycobacterium tuberculosis; assay: Antibacterial activity against Mycobacterium tuberculosis clinical isolate K5 assessed as inhibition of bacterial growth incubated for 6 days by microplate alamar blue assay; type: functional; settings: K5, 144 h, time 6 day
[8] = test system: Mycobacterium tuberculosis; assay: Antibacterial activity against Mycobacterium tuberculosis clinical isolate K12 assessed as inhibition of bacterial growth incubated for 6 days by microplate alamar blue assay; type: functional; settings: K12, 144 h, time 6 day
[9] = test system: Mycobacterium tuberculosis; assay: Antibacterial activity against Mycobacterium tuberculosis clinical isolate K16 assessed as inhibition of bacterial growth incubated for 6 days by microplate alamar blue assay; type: functional; settings: K16, 144 h, time 6 day
[10] = Toxicity in BALB/c mouse assessed as mouse death at 300 mg/kg, po measured after 6 days; type: organism-based; settings: in vivo, 144 h, time 6 day
[11] = target: T1, Dihydrofolate reductase (Mycobacterium tuberculosis) (UniProt P9WNX1); assay: Inhibition of Mycobacterium tuberculosis DHFR at 10 uM relative to control
T1 sequence (whole entry): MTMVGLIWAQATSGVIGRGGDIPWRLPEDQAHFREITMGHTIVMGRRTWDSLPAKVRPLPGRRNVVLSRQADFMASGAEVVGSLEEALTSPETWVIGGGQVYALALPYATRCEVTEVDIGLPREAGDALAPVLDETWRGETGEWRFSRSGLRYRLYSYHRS

[12] = target: T1, Dihydrofolate reductase (Mycobacterium tuberculosis); assay: Inhibition of Mycobacterium tuberculosis DHFR at 100 uM relative to control
[13] = Oral bioavailability in Sprague-Dawley rat at 15 mg/kg measured for 24 hrs by LC-MS analysis; type: ADME, organism-based; settings: in vivo

| Structure (SMILES) | MIC [1] [µg/mL] | IC50 at 48 h [2] [µM] | also measured |
| --- | --- | --- | --- |
| Cc1cc(Nc2nc(Nc3cccc(C(F)(F)F)c3)ncc2Cl)c(OC(C)C)cc1C1CCNCC1 | 1 (≈ 1.92 µM) | 1.1 |  |
| Cc1cc(Nc2nc(-c3ccccc3)nc3ccccc23)c(OC(C)C)cc1C1CCNCC1 | 2 (≈ 4.42 µM) | 2.8 |  |
| Cc1cc(Nc2nc(-c3cccc(O)c3)ncc2Cl)c(OC(C)C)cc1C1CCNCC1 | 2 (≈ 4.42 µM) | 1.3 |  |
| Cc1cc(Nc2nc(-c3ccccc3CO)ncc2Cl)c(OC(C)C)cc1C1CCNCC1 | 4 (≈ 8.57 µM) | 2 |  |
| Cc1cc(Nc2nc(-c3ccc(C(C)C)cc3)ncc2Cl)c(OC(C)C)cc1C1CCNCC1 | 1 (≈ 2.09 µM) | 2.2 |  |
| Cc1cc(Nc2nc(-c3cccnc3)ncc2Cl)c(OC(C)C)cc1C1CCNCC1 | 2 (≈ 4.57 µM) | 1.7 |  |
| CC(C)Oc1cc(N2CCNCC2)ccc1Nc1nc(-c2ccccc2)ncc1Cl | 1 (≈ 2.36 µM) | 2.9 |  |
| CCCCOc1cc(N2CCNCC2)ccc1Nc1nc(-c2ccccc2)ncc1Cl | 1 (≈ 2.28 µM) | 2.6 |  |
| Cc1cc(Nc2nc(-c3ccc4c(c3)OCO4)ncc2Cl)c(OC(C)C)cc1C1CCNCC1 | 1 (≈ 2.08 µM) | 1 |  |
| Cc1cc(Nc2nc(C3CC3)ncc2Cl)c(OC(C)C)cc1C1CCNCC1 | 2 (≈ 4.99 µM) | 2 |  |
| Cc1cc(Nc2nc(Nc3cccc4ccccc34)ncc2Cl)c(OC(C)C)cc1C1CCNCC1 | 2 (≈ 3.98 µM) | 2.2 |  |
| Cc1cc2nc(-c3ccccc3)cc(Nc3cc(C)c(C4CCNCC4)cc3OC(C)C)n2n1 | 8 (≈ 17.6 µM) | 4.7 |  |
| Cc1cc(NC(=O)Nc2ccc(F)cc2)c(OC(C)C)cc1C1CCNCC1 | > 64 | > 20 |  |
| Cc1cc(Nc2nc(Nc3ccc(F)cc3)ncc2Cl)c(OC(C)C)cc1C1CCNCC1 | 0.5 (≈ 1.06 µM) | 2.2 | MIC (Staphylococcus aureus): 4 µg/mL (≈ 8.51 µM); MIC [3]: 8 µg/mL (≈ 17 µM); MIC [4]: 4 µg/mL (≈ 8.51 µM); MIC (Escherichia coli): > 16 µg/mL; MIC [5]: 1 µg/mL (≈ 2.13 µM); MIC [6]: 1 µg/mL (≈ 2.13 µM); MIC [7]: 2 µg/mL (≈ 4.26 µM); MIC [8]: 1 µg/mL (≈ 2.13 µM); MIC [9]: 2 µg/mL (≈ 4.26 µM); Activity [10]: Toxic; inhibition [11]: 2.8%; inhibition [12]: 3.5% |
| Cc1cc(Nc2cc(C)c(C3CCNCC3)cc2OC(C)C)nc(-c2ccccc2)n1 | 4 (≈ 9.6 µM) | 1.9 |  |
| Cc1cc(NC(=S)Nc2ccc(F)cc2)c(OC(C)C)cc1C1CCNCC1 | > 64 | > 20 |  |
| Cc1cc(Nc2nc(-c3cccc(CO)c3)ncc2Cl)c(OC(C)C)cc1C1CCNCC1 | 4 (≈ 8.57 µM) | 4 |  |
| Cc1cc(Nc2nc(-c3cnc4ccccc4c3)ncc2Cl)c(OC(C)C)cc1C1CCNCC1 | 1 (≈ 2.05 µM) | 1 |  |
| Cc1cc(Nc2nc(-c3ccccc3)ncc2F)c(OC(C)C)cc1C1CCNCC1 | 0.5 (≈ 1.19 µM) | 2.8 |  |
| Cc1ccc(-c2ncc(Cl)c(Nc3cc(C)c(C4CCNCC4)cc3OC(C)C)n2)cc1 | 1 (≈ 2.22 µM) | 2.5 |  |

| Structure (SMILES) | MIC [1] [µg/mL] | IC50 at 48 h [2] [µM] | also measured |
| --- | --- | --- | --- |
| CC(C)COc1cc(N2CCNCC2)ccc1Nc1nc(-c2ccccc2)ncc1Cl | 1 (≈ 2.28 µM) | 2.6 |  |
| Cc1cc(Nc2nc(NC3CC3)ncc2Cl)c(OC(C)C)cc1C1CCNCC1 | 4 (≈ 9.62 µM) | 7.6 |  |
| Cc1cc(Nc2nc(NC3CCCC3)ncc2Cl)c(OC(C)C)cc1C1CCNCC1 | 1 (≈ 2.25 µM) | 3.8 |  |
| Cc1cc(Nc2ccnc(-c3ccccc3)n2)c(OC(C)C)cc1C1CCNCC1 | 4 (≈ 9.94 µM) | 1.9 |  |
| Clc1cnc(-c2ccccc2)nc1Nc1ccc(N2CCNCC2)cc1OC1CCCC1 | 1 (≈ 2.22 µM) | 2.7 |  |
| COc1cccc(Nc2ncc(Cl)c(Nc3cc(C)c(C4CCNCC4)cc3OC(C)C)n2)c1 | 1 (≈ 2.07 µM) | 1.3 |  |
| Cc1cc(Nc2nc(Nc3cccc(Cl)c3)ncc2Cl)c(OC(C)C)cc1C1CCNCC1 | 1 (≈ 2.06 µM) | 2 |  |
| CCc1ncc(Cl)c(Nc2cc(C)c(C3CCNCC3)cc2OC(C)C)n1 | 8 (≈ 20.6 µM) | 8 |  |
| CCOc1cc(N2CCNCC2)ccc1Nc1nc(-c2ccccc2)ncc1Cl | 2 (≈ 4.88 µM) | 2.5 |  |
| Cc1cc(Nc2nc(-c3ccc4ccccc4c3)ncc2Cl)c(OC(C)C)cc1C1CCNCC1 | 0.5 (≈ 1.03 µM) | 0.5 |  |
| Cc1cc(Nc2cc(-c3ccccc3)nc3ccnn23)c(OC(C)C)cc1C1CCNCC1 | 4 (≈ 9.06 µM) | 4.1 |  |
| Cc1cc(Nc2ncc(Cl)c(Nc3cccc4ccccc34)n2)c(OC(C)C)cc1C1CCNCC1 |  |  | MIC (Staphylococcus aureus): 8 µg/mL (≈ 15.9 µM); MIC [3]: 16 µg/mL (≈ 31.9 µM); MIC [4]: 16 µg/mL (≈ 31.9 µM); MIC (Escherichia coli): > 16 µg/mL; bioavailability [13]: 17.5%; inhibition [11]: 3.1%; inhibition [12]: 4.4% |
| Cc1cc(Nc2nc(-c3ccncc3)ncc2Cl)c(OC(C)C)cc1C1CCNCC1 | 2 (≈ 4.57 µM) | 2 |  |
| CC(C)CCOc1cc(N2CCNCC2)ccc1Nc1nc(-c2ccccc2)ncc1Cl | 1 (≈ 2.21 µM) | 2.1 |  |
| Cc1cc(Nc2nc(-c3ccc(C(C)(C)C)cc3)ncc2Cl)c(OC(C)C)cc1C1CCNCC1 | 1 (≈ 2.03 µM) | 2.3 |  |
| Cc1cc(Nc2nc(Nc3ccc(Cl)cc3Cl)ncc2Cl)c(OC(C)C)cc1C1CCNCC1 | 2 (≈ 3.84 µM) | 2.5 |  |
| Cc1cc(Nc2nc(-c3ccc(CO)cc3)ncc2Cl)c(OC(C)C)cc1C1CCNCC1 | 2 (≈ 4.28 µM) | 2 |  |
| CCCOc1cc(N2CCNCC2)ccc1Nc1nc(-c2ccccc2)ncc1Cl | 1 (≈ 2.36 µM) | 2.1 |  |
| COc1ccccc1Nc1ncc(Cl)c(Nc2cc(C)c(C3CCNCC3)cc2OC(C)C)n1 | 2 (≈ 4.15 µM) | 2 |  |
| Cc1cc(C)cc(-c2ncc(Cl)c(Nc3cc(C)c(C4CCNCC4)cc3OC(C)C)n2)c1 | 1 (≈ 2.15 µM) | 2.9 |  |

| Structure (SMILES) | MIC [1] [µg/mL] | IC50 at 48 h [2] [µM] | also measured |
| --- | --- | --- | --- |
| Clc1cnc(-c2ccccc2)nc1Nc1ccc(N2CCNCC2)cc1OCC1CCCCC1 | 2 (≈ 4.18 µM) | 2.9 |  |
| Cc1cc(Nc2nc(-c3ccc(Cl)cc3)ncc2Cl)c(OC(C)C)cc1C1CCNCC1 | 0.5 (≈ 1.06 µM) | 2.3 |  |
| CO[C@H]1/C=C/O[C@@]2(C)Oc3c(C)c(O)c4c(O)c(c(/C=N/N5CCN(C)CC5)c(O)c4c3C2=O)NC(=O)/C(C)=C\C=C\[C@H](C)[C@H](O)[C@@H](C)[C@@H](O)[C@@H](C)[C@H](OC(C)=O)[C@@H]1C [RIFAMPIN] |  |  | MIC [5]: < 1 µg/mL; MIC [6]: > 50 µg/mL; MIC [7]: > 50 µg/mL; MIC [8]: > 10 µg/mL; MIC [9]: > 10 µg/mL |
| Cc1cc(Nc2nc(Cl)ncc2Cl)c(OC(C)C)cc1C1CCNCC1 | 16 (≈ 40.5 µM) | 16 |  |
| Cc1cc(Nc2nc(N)ncc2Cl)c(OC(C)C)cc1C1CCNCC1 | 32 (≈ 85.1 µM) | > 10 |  |
| Clc1cnc(-c2ccccc2)nc1Nc1ccc(N2CCNCC2)cc1 | 8 (≈ 21.9 µM) | 3.3 |  |
| Cc1cc(Nc2nc(-c3cccc4ccccc34)ncc2Cl)c(OC(C)C)cc1C1CCNCC1 | 0.5 (≈ 1.03 µM) | 0.5 |  |
| Cc1cc(Nc2nc(-c3ccc4c(c3)OCCO4)ncc2Cl)c(OC(C)C)cc1C1CCNCC1 | 1 (≈ 2.02 µM) | 1 |  |
| Cc1cc(Nc2cc(-c3ccccc3)nc3ncnn23)c(OC(C)C)cc1C1CCNCC1 | 4 (≈ 9.04 µM) | 4.4 |  |
| Cc1cc(Nc2nc(-c3ccccc3)nc3ccsc23)c(OC(C)C)cc1C1CCNCC1 | 2 (≈ 4.36 µM) | 1.7 |  |
| CCC(C)Oc1cc(N2CCNCC2)ccc1Nc1nc(-c2ccccc2)ncc1Cl (stereo unspecified) | 1 (≈ 2.28 µM) | 2.3 |  |
| Cc1cc(Nc2nc(Nc3cccc(F)c3)ncc2Cl)c(OC(C)C)cc1C1CCNCC1 | 0.5 (≈ 1.06 µM) | 1.9 |  |
| CCCc1ccc(-c2ncc(Cl)c(Nc3cc(C)c(C4CCNCC4)cc3OC(C)C)n2)cc1 | 1 (≈ 2.09 µM) | 2.2 |  |
| Cc1cc(Nc2cc(C(F)(F)F)nc(-c3ccccc3)n2)c(OC(C)C)cc1C1CCNCC1 | 2 (≈ 4.25 µM) | 1.3 |  |
| Cc1cc(Nc2nc(Nc3ccccc3F)ncc2Cl)c(OC(C)C)cc1C1CCNCC1 | 1 (≈ 2.13 µM) | 1.9 |  |
| Clc1cnc(-c2ccccc2)nc1Nc1ccc(N2CCNCC2)cc1OC1CCCCC1 | 2 (≈ 4.31 µM) | 3.1 |  |
| COc1cc(N2CCNCC2)ccc1Nc1nc(-c2ccccc2)ncc1Cl | 4 (≈ 10.1 µM) | 2.7 |  |
| NNC(=O)c1ccncc1 [ISONIAZID] |  |  | MIC [5]: < 1 µg/mL; MIC [6]: > 50 µg/mL; MIC [7]: > 50 µg/mL; MIC [8]: > 10 µg/mL; MIC [9]: > 10 µg/mL |
| CNC(=O)c1ccc(-c2ncc(Cl)c(Nc3cc(C)c(C4CCNCC4)cc3OC(C)C)n2)cc1 | 2 (≈ 4.05 µM) | 2 |  |
